{
  "source": "patent US11198692B2",
  "about": "“Dihydro-pyrrolo-pyridine derivatives” (Pfizer Inc., priority 2017, dated 2021)",
  "biological_target": "T1, Human M4 receptors (Homo sapiens, UniProt P08173)",
  "T1 construct": "expressed in transfected cells",
  "T1 sequence (P08173 1-479)": "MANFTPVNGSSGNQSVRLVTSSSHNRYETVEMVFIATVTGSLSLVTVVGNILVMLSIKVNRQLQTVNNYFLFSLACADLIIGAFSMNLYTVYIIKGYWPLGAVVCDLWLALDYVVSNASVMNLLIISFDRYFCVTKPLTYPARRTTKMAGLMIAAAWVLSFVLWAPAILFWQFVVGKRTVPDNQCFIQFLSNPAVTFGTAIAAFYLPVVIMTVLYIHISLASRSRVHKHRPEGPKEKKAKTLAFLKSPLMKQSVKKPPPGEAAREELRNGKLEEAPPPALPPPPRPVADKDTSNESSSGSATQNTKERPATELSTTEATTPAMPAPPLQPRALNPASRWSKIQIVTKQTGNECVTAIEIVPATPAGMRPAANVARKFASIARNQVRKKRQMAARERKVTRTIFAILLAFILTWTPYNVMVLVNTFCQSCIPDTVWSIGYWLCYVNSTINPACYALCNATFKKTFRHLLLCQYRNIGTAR",
  "assay": "M4 PAM cAMP assay (GloSensor)",
  "assay_type": "cell-based",
  "conditions": "HEK293 GloSensor cells expressing hM4, with EC20 acetylcholine and isoproterenol, geometric mean of 2-4 determinations unless footnoted (b: >=5, c: single); for EC50 Mean Asymptote Maximum (%) / Emax: Emax = maximum asymptote of fitted dose response curve; for Emax: read-out: EC50 Mean Asymptote Maximum (%)",
  "description": "The M4 cAMP assay was designed to determine the potency and efficacy of muscarinic positive allosteric modulators (PAMs). Human M4 receptors were stably expressed in Human embryonic kidney (HEK293) cells expressed with the Promega GloSensor™ cAMP technology.\nHEK293 GloSensor cells expressing hM4 cells were cultured in growth media containing DMEM with 10% FBS, 1% Penicillin/Streptomycin, 500 μg/mL G418, 200 μg/mL Hygomycin B, and 1% Glutamax. When cells had grown to 80%-90% confluency, cells were harvested and seeded at a density of 25,000 cells/40 μL well, in a 384 white walled plates (Becton Dickinson 356661). Plates were incubated at 37 degrees C. and 5% CO2 for use after 24 hours.\nCompound Preparation for Activator Screen:\nTest compounds were initially prepared as 100% DMSO stock solutions, then transferred and serially diluted in 384-well compound plates (Matrix #4325). Each compound was tested at 10 concentrations in duplicate per experiment. Compound plates are spotted with 0.2 μL/well activator at 400 times the final assay concentration. Positive and negative controls for the compound alone activator response was 10 μM acetylcholine (Sigma # A2661) and DMSO, respectively. EC20 of acetylcholine was also used to define PAM activities.\nPromega GloSensor™reagent (Promega # E1291) had previously been aliquotted. For each experiment, a stock solution of GloSensor™ was thawed out and equilibration medium was prepared with 88% CO2-independent media (Invitrogen #18045088), 10% fetal bovine serum and 2% GloSensor™ cAMP Reagent stock solution. Stock solution was mixed. Culture media in cell plates was discarded, then replaced with 40 μL/well pre-warmed equilibration media, then incubated in the dark at room temperature for 2 hours. During the incubation, stimulation media containing agonist and EC20 acetylcholine was prepared. CO2-independent media containing 50 […] Isoproterenol representing an EC80 of b-adrenergic receptor activity (Sigma #16504, 400 times final concentration) and EC20 acetylcholine in 1.25% DMSO was added to all columns of the compound plate, with the exception of column 12 to allow for EC0 control. […] Compounds are now 5 times the final assay concentration. The plate was mixed using a plate agitator. At the end of the 2 hour GloSensor™ incubation, add 10 μL of the CO2-independent media containing agonist, EC20 acetylcholine and isoproterenol to the cell plate. Cell plate was then incubated for 10 minutes at room temperature, and then read using an EnVision plate reader (Perkin Elmer).\nData was exported from the EnVision plate reader. The percent effect for each well was determined using the mean values for the positive and negative controls on each plate for each read, specifically 100*(compound−negative control)/(positive control−negative control). Dose response curves were fitted to the compound percent effect data using a 4-parameter logistic fit model. Data was reported as EC50 and Emax, with the Emax as the maximum asymptote of the fitted dose response curve.",
  "data": [
    {"compound": "CNc1nc(C)c(C)c2c1CN(C(=O)C[C@@H]1C[C@H]1c1cncnc1)C2", "note": "(single isomer, unassigned) [Example 30, 1-[6,7-dimethyl-4-(methylamino)-1,3-dihydro-2H-pyrrolo[3,4-c]pyridin-2-yl]-2-[trans-2-(pyrimidin-5-yl)cyclopropyl]ethanone]", "values": [
      {"measurement": "EC50 Mean Asymptote Maximum (%)", "result": 95.1, "unit": "%"},
      {"measurement": "EC50", "result": 1.58, "unit": "nM"}
    ]},
    {"compound": "CNc1nc(C)c(C)c2c1CN(C(=O)CC1CN(c3cncnc3)C1)C2", "note": "[Example 19, 1-[6,7-dimethyl-4-(methylamino)-1,3-dihydro-2H-pyrrolo[3,4-c]pyridin-2-yl]-2-[1-(pyrimidin-5-yl)azetidin-3-yl]ethanone]", "values": [
      {"measurement": "Emax", "result": 92.3, "unit": "%"},
      {"measurement": "EC50", "result": 1.23, "unit": "nM"}
    ]},
    {"compound": "Cc1nc(N(C)C)c2c(c1C)CN(C(=O)CC1CN(c3cncnc3)C1)C2", "note": "[Example 20, 1-[4-(dimethylamino)-6,7-dimethyl-1,3-dihydro-2H-pyrrolo[3,4-c]pyridin-2-yl]-2-[1-(pyrimidin-5-yl)azetidin-3-yl]ethanone]", "values": [
      {"measurement": "Emax", "result": 95.1, "unit": "%"},
      {"measurement": "EC50", "result": 30.4, "unit": "nM"}
    ]},
    {"compound": "COc1nc(C)c(C)c2c1CN(C(=O)CC1CN(c3cccnc3)C1)C2", "note": "[Example 53, 1-(4-methoxy-6,7-dimethyl-1,3-dihydro-2H-pyrrolo[3,4-c]pyridin-2-yl)-2-[1-(pyridin-3-yl)azetidin-3-yl]ethanone]", "values": [
      {"measurement": "Emax", "result": 92.1, "unit": "%"},
      {"measurement": "EC50", "result": 43.8, "unit": "nM"}
    ]},
    {"compound": "CNc1nc(C)c(C)c2c1CN(C(=O)CC1CN(c3ccnc(OC(F)F)c3)C1)C2C", "note": "(single isomer, unassigned) [Example 50, 2-{1-[2-(difluoromethoxy)pyridin-4-yl]azetidin-3-yl}-1-[1,6,7-trimethyl-4-(methylamino)-1,3-dihydro-2H-pyrrolo[3,4-c]pyridin-2-yl]ethanone]", "values": [
      {"measurement": "EC50 Mean Asymptote Maximum (%)", "result": "104^c %"},
      {"measurement": "EC50", "result": 9.88, "unit": "nM"}
    ]},
    {"compound": "Cc1nc(C)c2c(c1C)CN(C(=O)CC1CN(c3cccnc3)C1)C2", "note": "[Example 12, 2-[1-(Pyridin-3-yl)azetidin-3-yl]-1-(4,6,7-trimethyl-1,3-dihydro-2H-pyrrolo[3,4-c]pyridin-2-yl)ethanone]", "values": [
      {"measurement": "Emax", "result": 89.3, "unit": "%"},
      {"measurement": "EC50", "result": 19.9, "unit": "nM"}
    ]},
    {"compound": "CNc1nc(C)c(C)c2c1CN(C(=O)CCc1ccc(C#N)cc1)C2", "note": "[Example 31, 4-{3-[6,7-dimethyl-4-(methylamino)-1,3-dihydro-2H-pyrrolo[3,4-c]pyridin-2-yl]-3-oxopropyl}benzonitrile]", "values": [
      {"measurement": "Emax", "result": 102, "unit": "%"},
      {"measurement": "EC50", "result": 12.1, "unit": "nM"}
    ]},
    {"compound": "CNc1nc(C)c(C)c2c1CN(C(=O)CCc1ccc(OC)cc1)C2", "note": "[Example 32, 1-[6,7-dimethyl-4-(methylamino)-1,3-dihydro-2H-pyrrolo[3,4-c]pyridin-2-yl]-3-(4-methoxyphenyl)propan-1-one]", "values": [
      {"measurement": "Emax", "result": 119, "unit": "%"},
      {"measurement": "EC50", "result": 24.7, "unit": "nM"}
    ]},
    {"compound": "Cc1c2c(c(=O)n(C)c1C)CN(C(=O)C[C@@H]1C[C@H]1c1cccnc1)C2", "note": "(single isomer, unassigned) [Example 27, 5,6,7-trimethyl-2-{[trans-2-(pyridin-3-yl)cyclopropyl]acetyl}-1,2,3,5-tetrahydro-4H-pyrrolo[3,4-c]pyridin-4-one]", "values": [
      {"measurement": "EC50 Mean Asymptote Maximum (%)", "result": 95.3, "unit": "%"},
      {"measurement": "EC50", "result": 9.99, "unit": "nM"}
    ]},
    {"compound": "CNc1nc(C)c(C)c2c1CN(C(=O)C[C@H]1C[C@@H]1c1cncnc1)C2", "note": "(racemic) [Example 28, 1-[6,7-dimethyl-4-(methylamino)-1,3-dihydro-2H-pyrrolo[3,4-c]pyridin-2-yl]-2-[trans-2-(pyrimidin-5-yl)cyclopropyl]ethanone]", "values": [
      {"measurement": "Emax", "result": 94.8, "unit": "%"},
      {"measurement": "EC50", "result": "< 1.7", "unit": "nM"}
    ]},
    {"compound": "CNc1nc(C)c(C)c2c1CN(C(=O)CC1CN(c3ncns3)C1)C2", "note": "[Example 2, 1-[6,7-Dimethyl-4-(methylamino)-1,3-dihydro-2H-pyrrolo[3,4-c]pyridin-2-yl]-2-[1-(1,2,4-thiadiazol-5-yl)azetidin-3-yl]ethanone]", "values": [
      {"measurement": "Emax", "result": 96.1, "unit": "%"},
      {"measurement": "EC50", "result": 4.33, "unit": "nM"}
    ]},
    {"compound": "CNc1nc(C)c(C)c2c1CN(C(=O)[C@@H]1CCOC1)C2", "note": "[Example 59, [6,7-dimethyl-4-(methylamino)-1,3-dihydro-2H-pyrrolo[3,4-c]pyridin-2-yl][(3R)-tetrahydrofuran-3-yl]methanone]", "values": [
      {"measurement": "Emax", "result": 95.5, "unit": "%"},
      {"measurement": "EC50", "result": 149, "unit": "nM"}
    ]},
    {"compound": "CNc1nc(C)c(C)c2c1CN(C(=O)C[C@@H]1C[C@H]1c1ccc(F)cc1)C2", "note": "(single isomer, unassigned) [Example 41, 1-[6,7-dimethyl-4-(methylamino)-1,3-dihydro-2H-pyrrolo[3,4-c]pyridin-2-yl]-2-[trans-2-(4-fluorophenyl)cyclopropyl]ethanone]", "values": [
      {"measurement": "EC50 Mean Asymptote Maximum (%)", "result": "145^c %"},
      {"measurement": "EC50", "result": 783, "unit": "nM"}
    ]},
    {"compound": "Cc1nc(CN(C)C)c2c(c1C)CN(C(=O)CC1CN(c3cccnc3)C1)C2", "note": "[Example 14, 1-{4-[(dimethylamino)methyl]-6,7-dimethyl-1,3-dihydro-2H-pyrrolo[3,4-c]pyridin-2-yl}-2-[1-(pyridin-3-yl)azetidin-3-yl]ethanone]", "values": [
      {"measurement": "Emax", "result": 99.4, "unit": "%"},
      {"measurement": "EC50", "result": 18.5, "unit": "nM"}
    ]},
    {"compound": "CNc1nc(C)c(C)c2c1CN(C(=O)CC1CN(c3ccnc(C#N)c3)C1)C2", "note": "[Example 36, 4-(3-{2-[6,7-dimethyl-4-(methylamino)-1,3-dihydro-2H-pyrrolo[3,4-c]pyridin-2-yl]-2-oxoethyl}azetidin-1-yl)pyridine-2-carbonitrile]", "values": [
      {"measurement": "Emax", "result": 95.6, "unit": "%"},
      {"measurement": "EC50", "result": 5.46, "unit": "nM"}
    ]},
    {"compound": "Cc1c2c(c(=O)n(C)c1C)CN(C(=O)CC1CN(c3cccnc3)C1)C2", "note": "[Example 1, 5,6,7-Trimethyl-2-{[1-(pyridin-3-yl)azetidin-3-yl]acetyl}-1,2,3,5-tetrahydro-4H-pyrrolo[3,4-c]pyridin-4-one]", "values": [
      {"measurement": "Emax", "result": 90.9, "unit": "%"},
      {"measurement": "EC50", "result": 8.62, "unit": "nM"}
    ]},
    {"compound": "CNc1nc(C)c(C)c2c1CN(C(=O)C[C@@H]1C[C@H]1c1cccnc1)C2", "note": "(single isomer, unassigned) [Example 10, 1-[6,7-Dimethyl-4-(methylamino)-1,3-dihydro-2H-pyrrolo[3,4-c]pyridin-2-yl]-2-[trans-2-(pyridin-3-yl)cyclopropyl]ethanone]", "values": [
      {"measurement": "Emax", "result": 114, "unit": "%"},
      {"measurement": "EC50", "result": 197, "unit": "nM"}
    ]},
    {"compound": "CNc1nc(C)c(C)c2c1CN(C(=O)C[C@@H]1C[C@H]1c1ccc(C)nc1)C2", "note": "(single isomer, unassigned) [Example 47, 1-[6,7-dimethyl-4-(methylamino)-1,3-dihydro-2H-pyrrolo[3,4-c]pyridin-2-yl]-2-[trans-2-(6-methylpyridin-3-yl)cyclopropyl]ethanone]", "values": [
      {"measurement": "Emax", "result": 115, "unit": "%"},
      {"measurement": "EC50", "result": 2.05, "unit": "nM"}
    ]},
    {"compound": "COc1nc(C)c(C)c2c1CN(C(=O)CC1CN(c3cncnc3)C1)C2", "note": "[Example 55, 1-(4-methoxy-6,7-dimethyl-1,3-dihydro-2H-pyrrolo[3,4-c]pyridin-2-yl)-2-[1-(pyrimidin-5-yl)azetidin-3-yl]ethanone]", "values": [
      {"measurement": "Emax", "result": 96.1, "unit": "%"},
      {"measurement": "EC50", "result": 78.7, "unit": "nM"}
    ]},
    {"compound": "CNc1nc(C)c(C)c2c1CN(C(=O)CC1CN(c3cccnc3)C1)C2", "note": "[Example 4, 1-[6,7-Dimethyl-4-(methylamino)-1,3-dihydro-2H-pyrrolo[3,4-c]pyridin-2-yl]-2-[1-(pyridin-3-yl)azetidin-3-yl]ethanone]", "values": [
      {"measurement": "Emax", "result": 95.8, "unit": "%"},
      {"measurement": "EC50", "result": 1.76, "unit": "nM"}
    ]},
    {"compound": "Cc1nc(N)c2c(c1C)CN(C(=O)C[C@@H]1C[C@H]1c1ccc(F)nc1)C2", "note": "(single isomer, unassigned) [Example 8, 1-(4-Amino-6,7-dimethyl-1,3-dihydro-2H-pyrrolo[3,4-c]pyridin-2-yl)-2-[trans-2-(6-fluoropyridin-3-yl)cyclopropyl]ethanone]", "values": [
      {"measurement": "Emax", "result": 99, "unit": "%"},
      {"measurement": "EC50", "result": 1.24, "unit": "nM"}
    ]}
  ]
}
